Results on 42 compounds are retold here after a melting point compilation (Tetko et al.).

Molecules are shown by their SMILES.

Take `COc1ccc(-c2nnc3n2NC(c2ccccc2O)S3)cc1` (configuration not stated): the melting point (usually the temperature, or range, at which the solid turns liquid) came to 220 °C.

The compound `CCOC(=O)C1=C(CBr)NC(=O)NC1C` (configuration not stated) registered a melting point of 148 °C. In the case of `O=C(C=Cc1ccccc1)c1ccccc1O` it was 90 °C; in that of `CC1(C)CC(=O)C(=NNc2ccc(O)cc2)C(=O)C1`, 206 °C; in that of `CCCCCC=CCC=CCCCCCCCC(=O)O`, -5 °C. To `O=S(=O)(c1ccccc1)c1ccsc1` belongs 116 °C; to `O=C(Nc1ccccc1NC(=O)c1ccccc1)c1ccccc1`, 301 to 302 °C. To `ClC(Cl)=C(c1ccc(Cl)cc1)c1ccc(Cl)cc1` belongs 89 °C. `O=C(Nc1cccc(Cl)c1)Nc1nnc(-c2ccc(Cl)cc2)o1` came in with a melting point of 246 to 247 °C. Regarding `CC1=CC2(C)C3C(=O)OC(=O)C3C1C1C(=O)OC(=O)C12` (configuration not stated), the melting point lay within 268 to 270 °C. As for `NC(=S)C1CCN(C(=O)OCc2ccccc2)CC1`, the melting point fell in the range of 128 to 130 °C.

As for `Clc1ccc(P(c2ccc(Cl)cc2)c2ccc(Cl)cc2)cc1`, the melting point came to 103 °C. Consider `Cc1cc2nnc(C(=O)O)c(C)n2n1`, for which the melting point is 166 to 168 °C. To `CCOC(=O)CC1NCCNC1=O` (configuration not stated) belongs 102 to 105 °C; to `Cn1c(=O)c(C2=NNC(=O)C2=CNc2ccc(Cl)cc2)c(O)c2ccccc21`, 290 °C. `Cc1cc2ccccc2s1` displayed a melting point of 52 °C. In the case of `COc1ccc(-c2cc(N3CCCC3)cc3c2c(=O)n(-c2ccccc2)n3C)cc1`, the melting point is 217 °C. In the case of `CCNC1=NC(=O)C(c2ccccc2)O1` (configuration not stated) it was 148 °C; in that of `O=[N+]([O-])c1cc(S(=O)(=O)Cl)ccc1Cl`, 60 °C. Regarding `C1COCCOCCOCCN1`, the melting point fell in the range of 53 to 55 °C. To `Nc1nc(S)nc2[nH]ncc12` belongs 300 °C.

As for `O=C(c1ccco1)c1noc(-c2ccc([N+](=O)[O-])cc2)c1S(=O)(=O)c1ccccc1`, the melting point stood at 138 °C. As to `Oc1cccc2[nH]c3ccccc3c12`, the melting point fell in the range of 169 to 173 °C. Regarding `Nc1cc(-c2ccc(Cl)cc2)nc(N)n1`, the melting point lay in the range of 158 to 161 °C. `Oc1cc(F)c(F)cc1F` displayed a melting point of 41 °C. Take `CCCC1Nn2c(nnc2-c2cccc([N+](=O)[O-])c2)S1` (configuration not stated): the melting point was 129 °C. To `CSc1ncc(CO)n1Cc1ccccc1` belongs 109 to 111 °C; to `Fc1cccc(Cl)c1CCl`, 7 °C. To `CCOC(=O)Nc1cccc(OC(=O)Nc2ccccc2)c1` belongs 120 °C.

`O=C(Cl)c1ccc(Cl)c([N+](=O)[O-])c1` came in with a melting point of 53.5 °C. To `COc1ccc(O)c(C(C)=O)c1` belongs 49 °C; to `CC(C)(C)OC(=O)C1CC(=O)CN1C(=O)OC(C)(C)C` (configuration not stated), 66 °C; to `CCCCOC(=O)CC(C)=O`, -35.6 °C. In the case of `NS(=O)(=O)c1ccc(SCCO)cc1` it was 112 °C. In turn, `C(C=C(c1ccccc1)c1ccccc1)=C(c1ccccc1)c1ccccc1` came in with a melting point of 198 °C. Turning to `C=C1C(=O)C23C4CC5C(C)(C)CCC(OC(C)=O)C5(C(=O)O4)C2C(OC(C)=O)CC1C3OC(C)=O` (configuration not stated), the melting point is 230 °C. In the case of `S=C=Nc1cccc2nsnc12` it was 88 to 89 °C. Turning to `O=C(O)C=CC(=O)C=CC(=O)O`, the melting point was found to be 300 °C.

Regarding `CC(C)(O)C#CC(C)(C)O`, the melting point is 95 °C. In the case of `COC(=O)[C@@H]1C[C@@H]2CSCN2[C@@]12C(=O)c1cccc3cccc2c13` it was 172 °C; in that of `Nc1ccc([N+](=O)[O-])c2c1C(=O)c1c(Cl)ccc(Cl)c1C2=O`, 307 °C; in that of `O=[N+]([O-])c1cc([N+](=O)[O-])c(C=Nc2ccccc2)cc1C=Nc1ccccc1`, 165 °C.
